The values that follow are results of earlier work, collected in patent US20060135507A1, “Therapeutic agent for overactive bladder involved in aging” (priority 2004, published 2006).

Data set [1] relates to rat with overactive bladder caused by cerebrovascular disease.
In data set [2] the test system is human with overactive bladder caused by cerebrovascular disease.

In the case of `COc1ccc(C(=O)N2CCCC2=O)cc1` [Aniracetam], the micturition reflex result in data set [1] and in data set [2] was “suppression of micturition reflex is observed” each time.
